The results in this text go back to ChEMBL document CHEMBL5241122, “A concise review on marine bromopyrrole alkaloids as anticancer agents” (Bioorg Med Chem Lett, 2023).

What all share (assay type): functional, cell-based
Assay [1] relates to SNU-638. The assay is described as follows: Antiproliferative activity against human SNU-638 cells incubated for 72 hrs by SRB assay. The settings on record: SNU-638, 72 h. (In SRB staining, fixed cells bind dye roughly in proportion to their protein.)
Assay [2] concerns SK-HEP1. The assay is described as follows: Antiproliferative activity against human SK-HEP1 cells incubated for 72 hrs by SRB assay. The following applies: SK-HEP1, 72 h.
Assay [3] relates to A549. In words: Antiproliferative activity against human A549 cells incubated for 72 hrs by SRB assay. The settings on record: A549, 72 h.
For assay [4], the system named is K562. The assay is described as follows: Antiproliferative activity against human K562 cells incubated for 72 hrs by SRB assay. The following applies: K562, 72 h.
Assay [5] concerns MDA-MB-231. In words: Antiproliferative activity against human MDA-MB-231 cells incubated for 72 hrs by SRB assay. The settings on record: MDA-MB-231, 72 h.
The subject of assay [6] is HCT-116. In words: Antiproliferative activity against human HCT-116 cells incubated for 72 hrs by SRB assay. The following applies: HCT-116, 72 h.

A word on the IC50: it is the concentration that inhibits the measured activity by half. Higher therefore signals weaker potency. With `NC1=NC(=O)C([C@@H]2[C@@H](CNC(=O)c3cc(Br)c[nH]3)[C@H](CNC(=O)c3cc(Br)c[nH]3)[C@H]2C2NC(N)=NC2=O)N1` (stereo partly specified), the IC50 worked out at 7.92 µM in assay [1]; 35.2 µM in assay [2]; 31.3 µM in assay [3]; 12.9 µM in assay [4]; 32.8 µM in assay [5]; 9.93 µM in assay [6].
